Reference: ChEMBL document CHEMBL1145416, “Design, synthesis, and biological evaluation of pyrazinones containing novel P1 needles as inhibitors of TF/VIIa” (Bioorg Med Chem Lett, 2007)

Experiments:
Coagulation factor X = Coagulation factor X (Homo sapiens, UniProt P00742); test: Inhibition of factor 10a
Trypsin = Trypsin (Homo sapiens, UniProt P07477+P07478+P35030); test: Inhibition of trypsin; type: protein assay
Prothrombin = Prothrombin (Homo sapiens, UniProt P00734); test: Inhibition of factor 2a
Coagulation factor VII = target: T1, Coagulation factor VII (Homo sapiens, UniProt P08709); test: Inhibition of factor 7a
T1 sequence (P08709 whole entry): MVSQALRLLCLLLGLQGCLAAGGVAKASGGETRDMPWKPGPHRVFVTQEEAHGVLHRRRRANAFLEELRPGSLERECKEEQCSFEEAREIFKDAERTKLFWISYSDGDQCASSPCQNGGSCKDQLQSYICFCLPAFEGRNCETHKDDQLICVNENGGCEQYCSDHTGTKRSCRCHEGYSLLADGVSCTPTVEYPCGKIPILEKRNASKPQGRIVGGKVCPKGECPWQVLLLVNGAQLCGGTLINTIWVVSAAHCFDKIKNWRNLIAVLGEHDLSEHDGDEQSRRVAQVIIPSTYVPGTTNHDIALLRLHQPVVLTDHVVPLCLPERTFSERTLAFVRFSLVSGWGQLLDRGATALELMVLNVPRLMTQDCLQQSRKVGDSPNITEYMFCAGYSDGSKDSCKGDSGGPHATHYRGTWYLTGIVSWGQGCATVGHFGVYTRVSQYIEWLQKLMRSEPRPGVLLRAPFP

Chain of Coagulation factor X (P00742 41-179 limits assumed): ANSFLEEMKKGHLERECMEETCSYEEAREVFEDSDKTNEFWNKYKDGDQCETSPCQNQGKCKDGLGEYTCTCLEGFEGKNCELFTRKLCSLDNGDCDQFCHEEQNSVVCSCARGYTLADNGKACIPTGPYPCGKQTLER
Chain of Coagulation factor X (P00742 235-488 limits assumed): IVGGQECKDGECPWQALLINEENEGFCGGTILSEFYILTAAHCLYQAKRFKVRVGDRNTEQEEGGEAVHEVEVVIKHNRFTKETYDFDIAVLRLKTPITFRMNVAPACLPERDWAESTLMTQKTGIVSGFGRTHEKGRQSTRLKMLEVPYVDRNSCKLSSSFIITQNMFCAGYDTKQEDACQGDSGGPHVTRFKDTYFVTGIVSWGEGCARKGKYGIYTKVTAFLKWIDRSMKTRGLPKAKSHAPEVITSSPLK

Compound	IC50 (Coagulation factor X) [µM]	IC50 (Trypsin) [µM]	IC50 (Prothrombin) [µM]	IC50 (Coagulation factor VII) [µM]
Nc1cccc(-c2c(Cl)nc(NC3CCC3)c(=O)n2CC(=O)NCc2ccc3c(N)noc3c2)c1	> 30	> 30	> 30	
N=C(N)c1ccc(CNC(=O)Cn2c(-c3cccc(N)c3)c(Cl)nc(NC3CCC3)c2=O)c(F)c1	0.05	> 30		0.04
Nc1cccc(-c2c(Cl)nc(NC3CCC3)c(=O)n2CC(=O)NCc2ccc3c(N)nccc3c2)c1	> 30	> 30	> 30	> 30
Nc1cccc(-c2c(Cl)nc(NC3CCC3)c(=O)n2CC(=O)NCCc2cnc[nH]2)c1	> 30	> 30	> 30	> 30
N=C(N)c1ccc(S(=O)(=O)NCCn2c(-c3cccc(N)c3)c(Cl)nc(NC3CCC3)c2=O)cc1	> 30	9.1	> 30	30
N=C(N)c1ccc(CNC(=O)Cn2c(-c3cccc(N)c3)c(Cl)nc(NC3CCC3)c2=O)cc1O	> 100	7.55	> 100	0.19
Nc1cccc(-c2c(Cl)nc(NC3CCC3)c(=O)n2CC(=O)NCc2ccc3c(N)nsc3c2)c1	> 30			
Nc1cccc(-c2c(Cl)nc(NC3CCC3)c(=O)n2CC(=O)NCc2ccnc(N)n2)c1	> 30		> 30	> 30
N/N=C(/N)c1ccc(CNC(=O)Cn2c(-c3cccc(N)c3)c(Cl)nc(NC3CCC3)c2=O)cc1	> 100		> 100	
N=C(N)c1ccc(CNC(=O)Cn2c(-c3cccc(N)c3)c(Cl)nc(NC3CCC3)c2=O)cc1F	> 30		> 30	
Nc1cccc(-c2c(Cl)nc(NC3CCC3)c(=O)n2CC(=O)NCCc2cnc(N)[nH]2)c1	> 30	6.2	> 30	> 30
N=C(N)c1c(F)c(F)c(CNC(=O)Cn2c(-c3cccc(N)c3)c(Cl)nc(NC3CCC3)c2=O)c(F)c1F	> 30		> 100	5.48

Second part, the compound after the results:

IC50 (Coagulation factor X) [µM]	IC50 (Trypsin) [µM]	IC50 (Prothrombin) [µM]	IC50 (Coagulation factor VII) [µM]	Compound
> 30	0.23	> 30	0.79	N=C(N)c1ccc(CNC(=O)Cn2c(-c3cccc(N)c3)c(Cl)nc(NC3CCC3)c2=O)c(C(F)(F)F)c1
> 30				N=C(N)c1ccc(C(=O)NCCn2c(-c3cccc(N)c3)c(Cl)nc(NC3CCC3)c2=O)cc1
0.04		10.6	0.02	Nc1cccc(-c2c(Cl)nc(NC3CCC3)c(=O)n2CC(=O)NCc2ccccc2)c1
> 30		> 30	> 30	N=c1[nH][nH]c(=O)c2cc(CNC(=O)Cn3c(-c4cccc(N)c4)c(Cl)nc(NC4CCC4)c3=O)ccc12
> 30	> 30	> 30	> 30	NC1=NCCSc2cc(CNC(=O)Cn3c(-c4cccc(N)c4)c(Cl)nc(NC4CCC4)c3=O)ccc21
> 100		> 100	0.11	N=C(N)c1c(O)c(F)c(CNC(=O)Cn2c(-c3cccc(N)c3)c(Cl)nc(NC3CCC3)c2=O)c(F)c1F
